Experimental data published in patent US6828450B2, “Triptycene analogs” (Kansas State University Research Foundation, priority 2000, dated 2004).
Several values for one entry are separate records, joined by “and”; a condition that tells them apart may be missing. Equal entries are not always repeated. Where two headings read alike, the source gives them in different places.

Legend:
L1210 cells [1] = assay: cells; settings: for inhibitory effect on L1210 cell viability: 256 nM, 4 days; for cytotoxicity at 0.041 µM: read-out: % inhibition of L1210 cell viability
Description: FIG. 1. […] For tumor cell growth and viability, L1210 cells were respectively seeded in triplicate at initial densities of 1×10^4 and 1.11×10^4 cells/0.5 ml/well in RPMI 1640 medium containing 7.5% FCS and penicillin (100 IU/ml)-streptomycin (100 μg/ml), and grown for 4 days in the presence or absence (control) of 256 nM concentrations of the indicated compounds in a humidified incubator at 37° C. with 5% CO2 in air. Cell density was monitored using a Coulter counter. […] The ability of viable cells/0.5 ml to bioreduce 0.1 ml of MTS:PMS (20:1) reagent over a 3-h incubation period at 37° C. was assessed by measuring the absorbamce of the water-soluble formazan products at A490 nm.
FIG. 4. […] Cells were seeded in triplicate at initial densities of 100,000 or 11,100 cells/0.5 ml/well and respectively incubated for 2 or 4 days in the presence or absence (control) of the indicated concentrations of drugs, which are plotted on a logarithmic scale. The ability of viable cells/0.5 ml to bioreduce 0.1 ml of MTS:PMS (20:1) reagent over a 3-h incubation period was assessed as described in FIG. 1.
TT0 was purchased from Aldrich (Milwaukee, Wis.). All solutions of synthetic TTs and tricyclic pyrone H10, vincristine (VCR; a gift from Lilly Researeh Laboratories, Indianapolis, Ind.) and camptothecin (CPT; from Sigma Chemical Co., St Louis, Mo.) were dissolved and diluted in dimethyl sulfoxide (DMSO), whereas daunomycin (DAU) (from Sigma) solutions were prepared in 0.1 M potassium phosphate buffer, pH 7.4, containing 0.9% NaCl. Suspension cultures of murine L1210 lymphocytic leukemia cells (American Type Culture Collection, Rockville, Md.) were maintained in continuous exponential growth by twice-a-week passage in RPMI 1640 medium supplemented with 7.5% fortified bovine calf serum (FCS; HyClone Laboratories, Logan, Utah) and penicillin (100 IU/ml)-streptomycin (100 μg/ml), and incubated in the presence or absence of drugs at 37° C. in a humidified atmosphere containing 5% CO2. […] Control cells incubated in the absence of drugs were similarly treated with vehicle only and, in every experiment, all incubates received the same volume of solvent. For drug removal, incubates were spun at 200×g for 10 min, drug-containing supernatants were discarded, and intact cells were washed thrice with 1 ml of the above RPMI 1640 culture medium and resuspended in 0.5 ml of fresh medium for further incubation.
L1210, HL-60-S, HL60-RV and HL-60-R8 cells suspended in FCS-containing RPMI 1640 medium were grown in 48-well Costar cell culture plates for up to 4 days in the presence or absence of drugs to evaluate drug cytotoxicity.

L1210 cells [2] = assay: DNA synthesis (3H-thymidine incorporation) in L1210 cells; assay type: cell-based, murine; settings: for concentration at which the drug becomes effective against DNA synthesis: 2-h treatment
Description: FIG. 9. […] Cells (1.14×10^6/0.5 ml of RPMI 1640 medium) were incubated at 37° C. for 90 min in the presence or absence (control) of the indicated concentrations of drugs, which are plotted on a logarithmic scale, and then pulse-labeled for an additional 30 min to determine the rate of ^3H-thymidine incorporation into DNA.
FIG. 11. […] The cellular uptake of ^3H-thymidine (striped) and the rate of ^3H-thymidine incorporation into DNA (open) were determined in cells (1.38×10^6/0.5 ml of RPMI 1640 medium) respectively preincubated at 37° C. for 15 or 90 min in the presence or absence (control) of 7 μM concentrations of the indicated compounds. For the cellular transport of nucleosides, preincubated cells were then exposed to 1 μCi of ^3H-thymidine for 30 sec at 37° C. […] For DNA synthesis, preincubated cells were then pulse-labeled with 1 μCi of ^3H-thymidine for an additional 30 min at 37° C.
FIG. 12. […] The cellular uptake of ^3H-thymidine (striped) and the rate of ^3H-thymidine incorporation into DNA (open) were determined in cells (1.64×10^6/0.5 ml of RPMI 1640 medium) respectively preincubated at 37° C. for 15 or 60 min in the presence or absence (control) of 10 and 25 μM TT2 or 25 μM H10. […] After preincubation, vehicle-treated controls were similarly spun and washed. For the cellular transport of nucleosides, preincubated cells were then exposed, in the presence (+) or absence (−) of TT2 or H10, to 1 μCi of ^3H-thymidine for 30 sec at 37° C. […] For DNA synthesis, preincubated cells were then pulse-labeled with 1 μCi of ^3H-thymidine for an additional 30 min at 37° C. in the presence (+) or absence (−) of TT2 or H10. […] Bars: means±SD (n=3).
For nucleic acid and protein syntheses, L1210 cells were resuspended in fresh FCS-containing RPMI 1640 medium at a density of about 1.1-1.6×10^6 cells/0.5 ml. To estimate the rate of DNA synthesis, HL-60-S, HL-60-RV and HL-60-R8 cells were resuspended in fresh FCS-containing RPMI 1640 medium at a density of 5×10^5 cells/0.5 ml.

[3] = read-out: IC50 (concentration inhibiting by 50% the viability of L1210 leukemic cells), day 4, Table 2 series

Question: How did the “inhibitory effect on L1210 cell viability” value (L1210 cells [1]) turn out when COC(=O)C1=C(C(=O)OC)C[C@H]2C(=O)C3=C(C(=O)[C@H]2C1)C1C2=C(C(=O)[C@H]4CC(C(=O)OC)=C(C(=O)OC)C[C@H]4C2=O)C3c2ccccc21 [TT4, (4aS*,7aR*,11aS*,14aR*)-Tetramethyl 1,4,4a,5,6,7,7a,8,11,11a,12,13,14,14a-tetradecahydro-5,7,12,14-tetraoxo-6,13-[1′,2′]benzenopentacene-2,3,9,10-tetracarboxylate] was run?
Answer: Its value is “inactive”.

Question: And the “effect on DNA synthesis” value (L1210 cells [2]; 7 μM, 2 h)?
Answer: The value was “alter neither”.

Question: Which IC50 (L1210 cells [1]; [3]) does the source give for COC1=C(Br)C(=O)C2=C(C1=O)C1C3=C(C(=O)C=C(N(C)C)C3=O)C2c2ccccc21 (stereo not drawn) [TT16, 2-Bromo-3-methoxy-6-(dimethylamino)-9,10-dihydro-9,10-[1′,2′]benzenoanthracene-1,4,5,8-tetraone] here?
Answer: The IC50 was 300 nM.

Question: What about the “potency on DNA synthesis compared with TT2” value (L1210 cells [2]; FIG. 13) of the same compound?
Answer: The value was “as potent as TT2”.

Question: Which results are given for COC1=CC(=O)C2=C(C1=O)C1C3=C(C(=O)C=CC3=O)C2c2ccccc21 (stereo not drawn) [TT2, 2-Methoxy-9,10-dihydro-9,10-[1′,2′]benzenoanthracene-1,4,5,8-tetraone]?
Answer: IC50 (L1210 cells [1]; [3]): 270 nM; IC50 (L1210 cells [1]; read-out: IC50, inhibition of L1210 cell viability, day 2): 250 nM; IC50 (L1210 cells [1]; read-out: IC50, inhibition of L1210 cell viability, day 4): 100 nM; % inhibition of DNA synthesis (L1210 cells [2]; 10 μM TT2, 60-min preincubation): 69%; effect on DNA synthesis (L1210 cells [2]; 25 μM TT2, 2-h treatment): totally inhibited; % inhibition of DNA synthesis (L1210 cells [2]; 25 μM TT2, 60-min preincubation): 97%; concentration at which the drug becomes effective against DNA synthesis (L1210 cells [2]): greater than 1.6 μM; reversibility of the inhibition of DNA synthesis upon drug removal (L1210 cells [2]; 10 and 25 μM TT2 or 25 μM H10, 60-min preincubation): irreversible; IC50 (L1210 cells [2]; 90 min drug + 30 min pulse-labeling (2 h), read-out: IC50, inhibition of DNA synthesis in L1210 cells): 6000 nM and ~6000 nM; times TT2 inhibits DNA, RNA and protein syntheses less effectively than DAU (L1210 cells [2]; L1210, after 2-3 h, IC50 values compared): 3-6 times

Question: Which results are given for COc1cccc2c1C(=O)c1c(O)c3c(c(O)c1C2=O)C[C@@](O)(C(C)=O)C[C@@H]3O[C@H]1C[C@H](N)[C@H](O)[C@H](C)O1 [DAU, daunomycin, reference compound]?
Answer: times DAU is more cytotoxic than TT2 (L1210 cells [1]): about 3.5 times; cytotoxicity at 0.041 µM (L1210 cells [1]; Mus musculus, L1210, 48 h): 32%; IC50 (L1210 cells [1]; Mus musculus, L1210, 48 h, read-out: IC50, inhibition of L1210 cell viability): 70 nM; cytotoxicity at 0.041 µM (L1210 cells [1]; Mus musculus, L1210, 96 h): 65%; IC50 (L1210 cells [1]; Mus musculus, L1210, 96 h, read-out: IC50 (concentration inhibiting by 50% the viability of L1210 leukemic cells)): 41 nM; IC50 (L1210 cells [1]; Mus musculus, L1210, 96 h, read-out: IC50, inhibition of L1210 cell viability): 30 nM; concentration at which the drug becomes effective against DNA synthesis (L1210 cells [2]): 0.256 µM; times DAU prevents DNA synthesis more effectively than TT2 (L1210 cells [2]; L1210, from IC50 values): about 6 times

Question: With COC(=O)C1=C(C(=O)OC)C[C@H]2[C@@H](C1)[C@@H](O)C1=C(C3C4=C(C1c1ccccc13)[C@@H](O)[C@H]1CC(C(=O)OC)=C(C(=O)OC)C[C@H]1[C@H]4O)[C@H]2O [TT12, (4aS*,5S*,7R*,12S*,14R*,7aR*,11aS*,14aR*)-Tetramethyl 1,4,4a,5,6,7,7a,8,11,11a,12,13,14,14a-tetradecahydro-5,7,12,14-tetrahydroxy-6,13-[1′,2′]benzenopentacene-2,3,9,10-tetracarboxylate] as the compound, how does the “inhibitory effect on L1210 cell viability” value (L1210 cells [1]) read?
Answer: The value was “inactive”.

Question: What about the “effect on DNA synthesis” value (L1210 cells [2]; 7 μM, 2 h) of the same compound?
Answer: The value was “alter neither”.
